{"source": "paper PMC6240093", "about": "“Identification of Two Mannosyltransferases Contributing to Biosynthesis of the Fungal-type Galactomannan α-Core-Mannan Structure in Aspergillus fumigatus” (Scientific Reports, 2018)", "target": "T1, CmsA (Aspergillus fumigatus, UniProt B0Y2F5)", "T1 construct": "gene AFUB_051270; catalytic domain residues 27-397 (N-terminal TM removed)", "T1 sequence (B0Y2F5 entry or part of it)": "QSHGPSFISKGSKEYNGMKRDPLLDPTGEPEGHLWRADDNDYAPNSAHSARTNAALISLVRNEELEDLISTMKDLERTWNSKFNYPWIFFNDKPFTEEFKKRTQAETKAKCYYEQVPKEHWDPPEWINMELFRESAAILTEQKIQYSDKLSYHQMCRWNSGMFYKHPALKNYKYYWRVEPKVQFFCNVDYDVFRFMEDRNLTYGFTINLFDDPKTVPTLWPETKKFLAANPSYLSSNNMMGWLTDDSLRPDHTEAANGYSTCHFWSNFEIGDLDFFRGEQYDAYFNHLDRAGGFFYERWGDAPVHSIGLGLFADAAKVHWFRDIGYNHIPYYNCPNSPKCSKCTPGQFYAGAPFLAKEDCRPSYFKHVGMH", "experiment": "HPLC (UV300) of product with p-nitrophenyl alpha-D-mannopyranoside as acceptor", "assay_type": "biochemical", "conditions": "donor 1.5 mM; p-nitrophenyl alpha-D-mannopyranoside 1.5 mM; 1.5 mM MnCl2; pH 7.0; 37 °C", "data": [{"smiles": "Nc1nc2c(ncn2[C@@H]2O[C@H](COP(=O)(O)OP(=O)(O)O[C@H]3O[C@H](CO)[C@@H](O)[C@H](O)[C@@H]3O)[C@@H](O)[C@H]2O)c(=O)[nH]1", "note": "[GDP-Man]", "values": [{"measurement": "HPLC (UV300) of product with p-nitrophenyl alpha-D-mannopyranoside as acceptor", "result": "CmsA has GDP-Man: α-mannoside α-1,2-mannosyltransferase activity in vitro"}]}]}
